From patent US11091428B2 (HAPLOGEN GMBH, priority 2016, dated 2021)
Read-outs that look alike come from different tables or passages of the source.

Tests used:
[1] = molecular target: T1, PLA2G16 (Homo sapiens, UniProt P53816); assay: Enzyme activity assay for PLA2G16 (Red/Green BODIPY PC-A2 fluorescence); assay type: biochemical; settings: His-tagged PLA2G16, 4 min pre-incubation, 2 nM to 50 μM; read-out: IC50 values of the compounds determined in the enzyme activity assay for PLA2G16
T1 construct: Hexa-His (N); made in house; host or cells: E. coli BL21(DE3)
T1 sequence (P53816 1-162): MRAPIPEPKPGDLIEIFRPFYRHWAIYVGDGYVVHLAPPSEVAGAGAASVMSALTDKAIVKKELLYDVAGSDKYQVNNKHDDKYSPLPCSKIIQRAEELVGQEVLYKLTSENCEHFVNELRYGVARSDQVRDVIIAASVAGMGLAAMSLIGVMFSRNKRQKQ
Outline: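 IC50 from non-linear fits of fluorescence rise (480/530 nm, 10 min) after adding Red/Green BODIPY PC-A2 mixed with DOPC/DOPG/cholesterol liposomes. Recombinant His-tagged human enzyme, bacterially expressed, was first exposed to inhibitor (2 nM–50 μM final) for 4 min in 50 mM Tris pH 8.5, 100 mM NaCl, 5 mM glutathione.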

[2] = test system: picornaviruses (CVB1, HRV-A2, HRV-A23, EV-68); assay: Anti-picornavirus cytopathic effect (CPE) reduction assay on HeLa H1 cells; assay type: cell-based; settings: HeLa H1 cells, 48 h, category from averaging the EC50 values from four picornaviruses (CVB1, HRV-A2, HRV-A23, EV68), read-out: EC50 values of the compounds determined in the anti-picornavirus assay
Outline: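 Cytopathic-effect protection: EC50 from non-linear regression of cell viability (CellTiterBlue, 560/590 nm) 48 h post-infection, scaled between infected and mock-infected vehicle wells. Compound dilutions added to HeLa H1 cells 2 h before virus (MOI causing complete CPE within 2 days), in DMEM + 2% FBS; categories average the four viruses.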

Compound | IC50 [1] | EC50 ([2]; Enterovirus B, HeLa H1, 48 h) | EC50 [2]
CC(C(=O)C(=O)NCC1CC1)N(C=O)CC1CCN(C(=O)c2ccccc2)CC1 (centres unmarked) [FP 80, 3-{N[(1-Benzoylpiperidin-4-yl)methyl]formamido}-N-(cyclopropylmethyl)-2-oxobutanamide] | 1000 to 10000 nM | > 10000 nM | 
O=CN(Cc1ccccc1)[C@@H](Cc1c[nH]cn1)C(=O)C(=O)NCC1CC1 [FP 119, (3S)-3-(N-Benzylformamido)-N-(cyclopropylmethyl)-4-(1H-imidazol-4-yl)-2-oxobutanamide] | < 1000 nM | > 10000 nM | 
COc1ccccc1S(=O)(=O)NC(C)C(=O)C(=O)NCC1CC1 (centres unmarked) [FP 220, N-(Cyclopropylmethyl)-3-(2-methoxybenzenesulfonamido)-2-oxobutanamide] | < 1000 nM | 1000 to 10000 nM | 
Cc1ccccc1C(=O)NC(C)C(=O)C(=O)NCC1CC1 (centres unmarked) [FP 156, N-(Cyclopropylmethyl)-3-[(2-methylphenyl)formamido]-2-oxobutanamide] | < 1000 nM | 1000 to 10000 nM | 
CCC(NC(=O)c1ccccc1)C(=O)C(=O)NCC1CC1 (centres unmarked) [FP 155, N-(Cyclopropylmethyl)-2-oxo-3-(phenylformamido)pentanamide] | < 1000 nM | 1000 to 10000 nM | 
O=C(NCCCc1ccncc1)C(=O)C1CCC(=O)N1Cc1ccccc1 (centres unmarked) [FP 228, 2-(1-Benzyl-5-oxopyrrolidin-2-yl)-2-oxo-N-[3-(pyridin-4-yl)propyl]acetamide] | < 1000 nM | 1000 to 10000 nM | 
CC(C)C(=O)NCCCCNC(=O)C(=O)[C@H]1CCC(=O)N1Cc1ccccc1 [FP 304, N-(4-{2-[(2R)-1-Benzyl-5-oxopyrrolidin-2-yl]-2-oxoacetamido}butyl)-2-methylpropan-amide] | < 1000 nM | 1000 to 10000 nM | 
CCCC(C(=O)C(=O)NCC1CC1)N(C=O)CC1CCOCC1 (centres unmarked) [FP 58, N-(Cyclopropylmethyl)-3-{N-[(oxan-4-yl)methyl]formamido}-2-oxohexanamide] | < 1000 nM | 1000 to 10000 nM | 
CC(C)(O)CNC(=O)C(=O)C1CCC(=O)N1Cc1ccc(Cl)cc1 (centres unmarked) [FP 274, 2-{1-[(4-Chlorophenyl)methyl]-5-oxopyrrolidin-2-yl}-N-(2-hydroxy-2-methylpropyl)-2-oxoacetamide] | < 1000 nM | 1000 to 10000 nM | 
CC(NC(=O)c1ccccc1)C(=O)C(=O)NCC1CC1 (centres unmarked) [FP 178, N-(Cyclopropylmethyl)-2-oxo-3-(phenylformamido)butanamide] | < 1000 nM | 1000 to 10000 nM | 
CC(C(=O)C(=O)NC1CC1)N(C=O)C1CCCCC1 (centres unmarked) [FP 42, 3-(N-Cyclohexylformamido)-N-cyclopropyl-2-oxobutanamide] | < 1000 nM | 1000 to 10000 nM | 
CC(C)SCCNC(=O)C(=O)C1CCC(=O)N1Cc1ccc(Cl)cc1 (centres unmarked) [FP 257, 2-{1-[(4-Chlorophenyl)methyl]-5-oxopyrrolidin-2-yl}-2-oxo-N-[2-(propan-2-ylsulfanyl)-ethyl]acetamide] | < 1000 nM | < 1000 nM | 
CC(C(=O)C(=O)NCCOC1CCCCC1)N(C=O)C1CCCCC1 (centres unmarked) [FP 55, 3-(N-Cyclohexylformamido)-N-[2-(cyclohexyloxy)ethyl]-2-oxobutanamide] | < 1000 nM | < 1000 nM | 
CC(C(=O)C(=O)NCCOc1ccc(C(N)=O)cc1)N(C=O)C1CCCCC1 (centres unmarked) [FP 114, 4-{2-[3-(N-Cyclohexylformamido)-2-oxobutanamido]ethoxy}benzamide] | < 1000 nM | > 10000 nM | 
CC(C(=O)C(=O)NCC1CCCCC1)N(C=O)CC1CCN(C(=O)OC(C)(C)C)CC1 (centres unmarked) [FP 53, tert-Butyl 4-[(N-{1-[(cyclohexylmethyl)carbamoyl]-1-oxopropan-2-yl}formamido)-methyl]piperidine-1-carboxylate] | < 1000 nM | 1000 to 10000 nM | 
CNC(=O)C(=O)C(C(C)C)N(C=O)Cc1ccccc1 (centres unmarked) [FP 197, 3-(N-Benzylformamido)-N,4-dimethyl-2-oxopentanamide] | < 1000 nM | > 10000 nM | 
CC(C(=O)C(=O)NCC1CCCCC1)N(C(=O)CNS(C)(=O)=O)C1CCCCC1 (centres unmarked) [FP 162, 3-(N-Cyclohexyl-2-methanesulfonamidoacetamido)-N-(cyclohexylmethyl)-2-oxobutanamide] | 10000 to 50000 nM | > 10000 nM | 
Cc1ccccc1C(=O)N[C@H](C)C(=O)C(=O)NCC1CC1 (single isomer, unassigned) [FP 158] | < 1000 nM | 1000 to 10000 nM | 
O=CN(CC1CCOCC1)C(CCc1ccccc1)C(=O)C(=O)NCC1CC1 (centres unmarked) [FP 68, N-(Cyclopropylmethyl)-3-{N-[(oxan-4-yl)methyl]formamido}-2-oxo-5-phenylpentanamide] | < 1000 nM | < 1000 nM | 

Compound | IC50 [1] | EC50 ([2]; Enterovirus B, HeLa H1, 48 h) | EC50 [2]
CCC(NC(=O)c1ccncc1)C(=O)C(=O)NCC1CCCCC1 (centres unmarked) [FP 208, N-(Cyclohexylmethyl)-2-oxo-3-[(pyridin-4-yl)formamido]pentanamide] | < 1000 nM | > 10000 nM | 
CNC(=O)C(=O)C1N(Cc2ccccc2)C(=O)CC12CC2 (centres unmarked) [FP 347, 2-{5-Benzyl-6-oxo-5-azaspiro[2.4]heptan-4-yl}-N-methyl-2-oxoacetamide] | < 1000 nM | < 1000 nM | 
CC(C(=O)C(=O)NCC(F)F)N(C=O)C1CCCCC1 (centres unmarked) [FP 111, 3-(N-Cyclohexylformamido)-N-(2,2-difluoroethyl)-2-oxobutanamide] | < 1000 nM | > 10000 nM | 
CC(C)CNC(=O)C(=O)C(C)N(C=O)CC1CC1 (centres unmarked) [FP 16, 3-[N-(cyclopropylmethyl)formamido]-N-(2-methylpropyl)-2-oxobutanamide] | < 1000 nM | 1000 to 10000 nM | 
O=C(NCC1CC1)C(=O)C1CCC(=O)N1CC1CCCCC1 (centres unmarked) [FP 202, 2-[1-(Cyclohexylmethyl)-5-oxopyrrolidin-2-yl]-N-(cyclopropylmethyl)-2-oxoacetamide] | < 1000 nM | < 1000 nM | 
CC(C(=O)C(=O)NCC1CC1)N(C=O)C1CCCCC1 (centres unmarked) [FP 40, 3-(N-Cyclohexylformamido)-N-(cyclopropylmethyl)-2-oxobutanamide] | < 1000 nM | < 1000 nM | 
COCCCN(C=O)C(CC(C)C)C(=O)C(=O)NCC1CC1 (centres unmarked) [FP 72, N-(Cyclopropylmethyl)-3-[N-(3-methoxypropyl)formamido]-5-methyl-2-oxohexanamide] | < 1000 nM | 1000 to 10000 nM | 
CC(C)CN(C=O)C(C(=O)C(=O)NCC1CC1)C(C)C (centres unmarked) [FP 30, N-(Cyclopropylmethyl)-4-methyl-3-[N-(2-methylpropyl)formamido]-2-oxopentanamide] | < 1000 nM | 1000 to 10000 nM | 
CC(NC(=O)Cc1ccccc1)C(=O)C(=O)NCC1CC1 (centres unmarked) [FP 167, N-(Cyclopropylmethyl)-2-oxo-3-(2-phenylacetamido)butanamide] | < 1000 nM | > 10000 nM | 
CC(C)OCCNC(=O)C(=O)[C@H]1CCC(=O)N1Cc1ccccc1 [FP 286, 2-[(2R)-1-Benzyl-5-oxopyrrolidin-2-yl]-2-oxo-N-[2-(propan-2-yloxy)ethyl]acetamide] | < 1000 nM | 1000 to 10000 nM | 
CC1CC(=O)N(Cc2ccccc2)[C@@H]1C(=O)C(=O)NC1CC1 (single isomer, unassigned) [FP 339] | 1000 to 10000 nM |  | > 10000 nM
CC(C)CC(C(=O)C(=O)NCC1CC1)N(C=O)CC1CC1 (centres unmarked) [FP 62, N-(Cyclopropylmethyl)-3-[N-(cyclopropylmethyl)formamido]-5-methyl-2-oxohexanamide] | < 1000 nM | < 1000 nM | 
O=C(NCC(F)F)C(=O)[C@H]1CCC(=O)N1Cc1ccccc1 [FP 266, 2-[(2R)-1-Benzyl-5-oxopyrrolidin-2-yl]-N-(2,2-difluoroethyl)-2-oxoacetamide] | < 1000 nM | < 1000 nM | 
CC(C(=O)C(=O)NCc1cccc(Cl)c1)N(C=O)CC1CCCCC1 (centres unmarked) [FP 18, N-[(3-Chlorophenyl)methyl]-3-[N-(cyclohexylmethyl)formamido]-2-oxobutanamide] | < 1000 nM | < 1000 nM | 
CC(C)C(=O)N(C)CCNC(=O)C(=O)[C@H]1CCC(=O)N1Cc1ccccc1 [FP 333, N-(2-{2-[(2R)-1-Benzyl-5-oxopyrrolidin-2-yl]-2-oxoacetamido}ethyl)-N,2-dimethyl-propanamide] | < 1000 nM | 1000 to 10000 nM | 
CCNC(=O)C(=O)C1N(Cc2ccccc2)C(=O)CC12CC2 (centres unmarked) [FP 348, 2-{5-Benzyl-6-oxo-5-azaspiro[2.4]heptan-4-yl}-N-ethyl-2-oxoacetamide] | < 1000 nM | < 1000 nM | 
Cc1cccc(CN2C(=O)CCC2C(=O)C(=O)NC2CC2)c1 (centres unmarked) [FP 269, N-Cyclopropyl-2-{1-[(3-methylphenyl)methyl]-5-oxopyrrolidin-2-yl}-2-oxoacetamide] | < 1000 nM | 1000 to 10000 nM | 
CCC(C(=O)C(=O)NCC1CCCCC1)N(C=O)CC1CCN(C(=O)OC(C)(C)C)CC1 (centres unmarked) [FP 59, tert-Butyl 4-[(N-{1-[(cyclohexylmethyl)carbamoyl]-1-oxobutan-2-yl} formamido)methyl]-piperidine-1-carboxylate] | < 1000 nM | 1000 to 10000 nM | 
